Measurements taken from the supplement of paper PMC10307832.

Columns and labels:
Test in all cases: relative viability (nuclei count vs DMSO), 5 days (fraction); higher = more cells survive
[1] = compound: Cc1cc(Nc2cc(N3CCN(C)CC3)nc(Sc3ccc(NC(=O)C4CC4)cc3)n2)n[nH]1 [Tozasertib] + COc1cccc2cc(-c3nc([C@H]4CC[C@H](C(=O)O)CC4)n4ncnc(N)c34)[nH]c12 [OSI-027] (partner 0.5 µM)
Procedure, shortened: (§1)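 Each reported value is a median over duplicate plates. It expresses relative viability: treated-well nuclei count divided by vehicle-well nuclei count. Lung cancer cell lines in 1536-well plates were dosed by pin tool a day after seeding, alone with one drug or with a fixed anchor-drug dose plus five library-drug doses (not always all listed) in √10 steps, and nuclei were counted after 5 days.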

[2] = compound: Cc1cc(Nc2cc(N3CCN(C)CC3)nc(Sc3ccc(NC(=O)C4CC4)cc3)n2)n[nH]1 [Tozasertib] + COc1cc2c(Oc3ccc(NC(=O)C4(C(=O)Nc5ccc(F)cc5)CC4)cc3F)ccnc2cc1OCCCN1CCOCC1 [Foretinib] (partner 0.25 µM)
Procedure, shortened: as §1

[3] = compound: Cc1cc(Nc2cc(N3CCN(C)CC3)nc(Sc3ccc(NC(=O)C4CC4)cc3)n2)n[nH]1 [Tozasertib] + O=C(CCCCCCC(=O)Nc1ccccc1)NO [Vorinostat] (partner 1 µM)
Procedure, shortened: as §1

[4] = compound: Cc1cc(Nc2cc(N3CCN(C)CC3)nc(Sc3ccc(NC(=O)C4CC4)cc3)n2)n[nH]1 [Tozasertib] + C[C@]1(O)C[C@@H](c2nc(-c3ccc4ccc(-c5ccccc5)nc4c3)c3c(N)nccn32)C1 [Linsitinib] (partner 1 µM)
Procedure, shortened: as §1

[5] = compound: Cc1cc(Nc2cc(N3CCN(C)CC3)nc(Sc3ccc(NC(=O)C4CC4)cc3)n2)n[nH]1 [Tozasertib] + CC(C)C[C@H](NC(=O)[C@H](Cc1ccccc1)NC(=O)c1cnccn1)B(O)O [Bortezomib] (partner 0.002 µM)
Procedure, shortened: as §1

Cell Line | relative viability ([1]; first compound 0.004 µM) | relative viability ([1]; first compound 0.01265 µM) | relative viability ([1]; first compound 0.04 µM) | relative viability ([1]; first compound 0.1265 µM) | relative viability ([2]; first compound 0.004 µM) | relative viability ([2]; first compound 0.01265 µM) | relative viability ([2]; first compound 0.04 µM) | relative viability ([2]; first compound 0.1265 µM) | relative viability ([3]; first compound 0.004 µM) | relative viability ([3]; first compound 0.01265 µM) | relative viability ([3]; first compound 0.04 µM) | relative viability ([3]; first compound 0.1265 µM) | relative viability ([4]; first compound 0.004 µM) | relative viability ([4]; first compound 0.04 µM) | relative viability ([4]; first compound 0.1265 µM) | relative viability ([5]; first compound 0.004 µM) | relative viability ([5]; first compound 0.1265 µM) | relative viability ([4]; first compound 0.01265 µM) | relative viability ([5]; first compound 0.01265 µM) | relative viability ([5]; first compound 0.04 µM)
NCI-H2228 | 0.703 | 0.506 | 0.528 | 0.29 | 0.947 | 0.803 | 0.851 | 0.356 | 0.668 | 0.402 | 0.585 | 0.49 | 0.526 | 0.766 | 0.557 | 1.31 | 0.434 |  |  | 
PC-3 [JPC-3] | 0.587 | 0.74 | 0.799 | 0.701 | 1 | 1.06 | 1.07 | 0.961 | 0.616 | 0.51 | 0.71 | 0.566 | 0.902 | 0.971 | 0.972 | 0.787 | 0.757 | 0.935 | 0.829 | 0.881
NCI-H2405 | 0.616 | 0.676 | 0.642 | 0.698 | 1.09 | 1 | 1.01 | 0.974 | 1.16 | 0.809 | 1.02 | 0.594 | 1.03 |  | 0.962 | 1.05 | 0.826 | 0.944 | 0.944 | 0.96
NCI-H1993 | 0.485 | 0.505 | 0.569 | 0.524 | 0.944 | 0.732 | 0.848 | 0.726 | 0.754 | 0.824 | 1.11 | 0.408 | 0.8 | 0.649 | 0.616 | 1.06 | 0.805 | 0.668 | 1.05 | 1.33
